According to the CheMixHub drug solubility set:

Assay: xn = mol fraction of the nth substance listed, in the solute-free solvent

CN1CCN(C2=Nc3cc(Cl)ccc3Nc3ccccc32)CC1 + CC(C)O + O
solubility (g/100 g solution)
Settings	x2 = 0.03225	x2 = 0.06974	x2 = 0.1139	x2 = 0.1666	x2 = 0.2307	x2 = 0.3103	x2 = 0.4117	x2 = 0.5454	x2 = 0.7297
278.15 K	0.00624	0.0228	0.0624	0.135	0.239	0.393	0.559	0.783	0.957
283.15 K	0.00829	0.029	0.0775	0.164	0.288	0.463	0.667	0.914	1.13
288.15 K	0.0108	0.0371	0.096	0.199	0.35	0.567	0.781	1.08	1.32
293.15 K	0.014	0.0473	0.117	0.237	0.417	0.659	0.933	1.27	1.54
298.15 K	0.0182	0.06	0.144	0.283	0.493	0.781	1.09	1.47	1.78
303.15 K	0.0233	0.0733	0.171	0.336	0.578	0.917	1.25	1.72	2.07
308.15 K	0.0298	0.0919	0.207	0.399	0.675	1.06	1.47	1.96	2.37
313.15 K	0.0368	0.113	0.249	0.472	0.803	1.22	1.69	2.24	2.68
318.15 K	0.0461	0.137	0.295	0.552	0.923	1.42	1.95	2.58	3.06
323.15 K	0.0576	0.166	0.344	0.642	1.07	1.63	2.21	2.92	3.45
328.15 K	0.071	0.203	0.407	0.739	1.23	1.85	2.53	3.33	3.91

Nc1cccc(S(=O)(=O)c2cccc(N)c2)c1 + CC(C)O + O
solubility (g/100 g solution)
Settings	283.15 K	288.15 K	293.15 K	298.15 K	303.15 K	308.15 K	313.15 K	318.15 K	323.15 K	328.15 K
x2 = 0.03225	0.0588	0.08	0.109	0.143	0.188	0.248	0.319	0.411	0.517	0.662
x2 = 0.06974	0.109	0.146	0.196	0.259	0.34	0.424	0.549	0.698	0.874	1.09
x2 = 0.1139	0.169	0.219	0.286	0.375	0.488	0.618	0.782	0.98	1.22	1.52
x2 = 0.1666	0.236	0.312	0.396	0.516	0.657	0.834	1.05	1.3	1.59	1.98
x2 = 0.2307	0.299	0.388	0.5	0.652	0.816	1.02	1.28	1.6	1.97	2.4
x2 = 0.3103	0.36	0.459	0.599	0.751	0.954	1.2	1.51	1.84	2.24	2.73
x2 = 0.4117	0.398	0.513	0.662	0.841	1.07	1.34	1.65	2.05	2.48	3.01
x2 = 0.5454	0.424	0.54	0.702	0.895	1.11	1.4	1.71	2.14	2.62	3.17
x2 = 0.7297	0.432	0.543	0.686	0.878	1.11	1.38	1.72	2.09	2.57	3.12

Nc1nccnc1Cl + CC(C)O + O
solubility (g/100 g solution)
Settings	278.15 K	283.15 K	288.15 K	293.15 K	298.15 K	303.15 K	308.15 K	313.15 K	318.15 K	323.15 K
x2 = 0.03225	0.0425	0.0564	0.0738	0.092	0.112	0.133	0.154	0.178	0.201	0.227
x2 = 0.06974	0.0786	0.103	0.134	0.166	0.201	0.237	0.275	0.316	0.356	0.402
x2 = 0.1139	0.129	0.168	0.215	0.266	0.321	0.38	0.439	0.503	0.567	0.64
x2 = 0.1666	0.19	0.245	0.313	0.387	0.466	0.551	0.638	0.729	0.824	0.93
x2 = 0.2307	0.242	0.315	0.4	0.503	0.609	0.724	0.84	0.962	1.09	1.24
x2 = 0.3103	0.31	0.394	0.503	0.621	0.753	0.893	1.05	1.2	1.38	1.57
x2 = 0.4117	0.355	0.459	0.585	0.73	0.887	1.06	1.23	1.42	1.61	1.85
x2 = 0.5454	0.393	0.507	0.645	0.808	0.982	1.18	1.38	1.58	1.83	2.1
x2 = 0.7297	0.411	0.529	0.672	0.836	1.02	1.23	1.45	1.67	1.93	2.26

OCCN(CCO)c1nc(N2CCCCC2)c2nc(N(CCO)CCO)nc(N3CCCCC3)c2n1 + CC(C)O + O
solubility (g/100 g solution)
Settings	293.15 K	298.15 K	303.15 K	308.15 K	313.15 K	318.15 K	323.15 K	328.15 K
x2 = 0.3	4.66	6.62	8.49	11.6	14.9	19.9	27.3	32.8
x2 = 0.4	7.42	9.61	12.4	15.3	20.2	25.6	32.3	39.9
x2 = 0.5	8.69	11.8	14.9	18.1	21.7	27.7	33.4	39.5
x2 = 0.6	9.25	11.6	14.6	18	20.8	26.6	31.7	37.5
x2 = 0.7	8.37	9.97	12.7	15.8	19.1	23.7	28.6	33.6
x2 = 0.8	6.58	8.26	10.4	13.2	15.7	20	24	29
x2 = 0.9	4.8	6.08	7.64	9.93	11.6	15.1	18.8	23.2

c1ccc2[nH]c(-c3cscn3)nc2c1 + CC(C)O + O
solubility (g/100 g solution)
Settings	283.15 K	288.15 K	293.15 K	298.15 K	303.15 K	308.15 K	313.15 K	318.15 K	323.15 K
x2 = 0.03225	0.00182	0.0023	0.00284	0.00356	0.0044	0.00539	0.00665	0.00808	0.00978
x2 = 0.06974	0.00792	0.00964	0.0123	0.015	0.0183	0.022	0.0263	0.0311	0.0368
x2 = 0.1139	0.0206	0.0251	0.0303	0.0374	0.0453	0.0539	0.064	0.0751	0.0876
x2 = 0.1666	0.0372	0.0456	0.0555	0.0669	0.0796	0.0936	0.113	0.131	0.156
x2 = 0.2307	0.0599	0.0732	0.0858	0.101	0.121	0.143	0.169	0.197	0.23
x2 = 0.3103	0.0907	0.109	0.127	0.148	0.178	0.204	0.234	0.27	0.312
x2 = 0.4117	0.131	0.154	0.181	0.213	0.249	0.287	0.329	0.379	0.433
x2 = 0.5454	0.16	0.192	0.225	0.262	0.301	0.347	0.399	0.459	0.529
x2 = 0.7297	0.197	0.23	0.268	0.309	0.36	0.413	0.47	0.534	0.6

S=c1[nH]ncs1 + CCCO + O
solubility (g/100 g solution)
Settings	278.15 K	283.15 K	288.15 K	293.15 K	298.15 K	303.15 K	308.15 K	313.15 K	318.15 K	323.15 K
x2 = 0.1	1.64	2.13	2.71	3.49	4.42	5.59	6.98	8.6	10.7	13.4
x2 = 0.2	3.48	4.3	5.41	6.75	8.22	10	12.1	14.6	17.5	20.8
x2 = 0.3	5.01	6.25	7.53	9.11	10.8	12.9	15.4	18.1	21.5	25.1
x2 = 0.4	6.2	7.46	8.98	10.7	12.7	14.7	17.2	20.1	23.3	26.9
x2 = 0.5	7.02	8.48	9.9	11.7	13.5	15.7	18.1	20.8	23.9	27.3
x2 = 0.6	7.59	8.9	10.3	11.9	13.8	15.9	18.2	20.4	23.3	26.4
x2 = 0.7	7.61	8.94	10.3	11.8	13.6	15.4	17.3	19.7	22.2	25.2
x2 = 0.8	7.47	8.6	9.84	11.4	13.1	14.6	16.8	18.9	21.2	24.1
x2 = 0.9	6.73	8.12	8.99	10.4	11.8	13.5	15.3	17.3	19.6	22.2
